Read-outs that look alike come from different tables or passages of the source. Starred links: 1 amine or outer side, 2 acyl side, 3 side chain; linkers in the order of their positions; H or OH if unused. Non-standard residues stand in square brackets, D forms with d. Residues, ends and D or L forms follow the SMILES beside them. Groups on a side chain read outwards from the residue. No end group written: not given here. *: point of attachment. C20 diacid = O=C(O)CCCCCCCCCCCCCCCCCCC(=O)*; C18 diacid = O=C(O)CCCCCCCCCCCCCCCCC(=O)*; αMePhe(2-F) = C[C@](N)(Cc1ccccc1F)C(=O)O; γGlu = O=C(O)[C@H](CCC(=O)[*:2])N[*:1]; αMe4Pal = C[C@](N)(Cc1ccncc1)C(=O)O; αMeY = C[C@](N)(Cc1ccc(O)cc1)C(=O)O; 4Pal = N[C@@H](Cc1ccncc1)C(=O)O; αMeL = CC(C)C[C@](C)(N)C(=O)O; αMeS = C[C@](N)(CO)C(=O)O; Orn = NCCC[C@H](N)C(=O)O; AEEA = NCCOCCOCC(=O)O; Aib = CC(C)(N)C(=O)O

Holding throughout (format): cell-based
In assay [1] the target is T1, hGLP-1R (Homo sapiens, UniProt P43220). The assay is described as follows: Functional cAMP activation in the presence of 0.1% casein (no HSA). As to conditions: read-out: Relative cAMP EC50, hGLP-1R.
T1 sequence (P43220 24-463): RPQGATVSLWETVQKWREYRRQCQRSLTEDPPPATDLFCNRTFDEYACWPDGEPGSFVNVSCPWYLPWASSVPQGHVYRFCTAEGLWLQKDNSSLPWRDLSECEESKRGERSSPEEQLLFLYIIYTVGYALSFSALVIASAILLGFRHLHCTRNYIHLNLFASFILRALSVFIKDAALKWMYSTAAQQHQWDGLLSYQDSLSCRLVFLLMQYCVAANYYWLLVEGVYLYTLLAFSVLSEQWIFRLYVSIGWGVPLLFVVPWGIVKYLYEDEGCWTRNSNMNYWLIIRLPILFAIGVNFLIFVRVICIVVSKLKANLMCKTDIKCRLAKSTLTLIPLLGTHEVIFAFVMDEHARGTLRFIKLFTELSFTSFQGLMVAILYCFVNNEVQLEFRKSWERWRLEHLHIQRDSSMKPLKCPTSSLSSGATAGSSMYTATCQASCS
Assay [2] concerns the target T2, hGIPR (Homo sapiens, UniProt P48546).
T2 sequence (P48546 22-466): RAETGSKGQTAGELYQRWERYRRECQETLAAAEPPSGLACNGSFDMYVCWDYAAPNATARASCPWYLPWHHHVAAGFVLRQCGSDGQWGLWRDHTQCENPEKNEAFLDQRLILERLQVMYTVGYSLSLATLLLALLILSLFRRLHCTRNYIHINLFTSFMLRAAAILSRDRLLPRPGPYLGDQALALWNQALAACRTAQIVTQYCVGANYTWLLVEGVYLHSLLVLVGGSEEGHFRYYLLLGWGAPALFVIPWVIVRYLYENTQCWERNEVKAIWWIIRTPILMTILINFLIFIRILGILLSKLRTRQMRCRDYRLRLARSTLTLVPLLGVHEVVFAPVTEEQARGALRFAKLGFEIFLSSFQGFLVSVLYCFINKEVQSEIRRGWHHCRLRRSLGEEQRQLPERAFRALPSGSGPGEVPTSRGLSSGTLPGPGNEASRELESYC
Description: Functional cAMP activity in the presence of 1% HSA. As to conditions: read-out: cAMP Rel EC50, hGIPR.

In assay [3] the target is T2, hGIPR. The assay is described as follows: Functional cAMP activation in the presence of 0.1% casein (no HSA). As to conditions: read-out: Relative cAMP EC50, hGIPR.
Assay [4] concerns the target human GcgR (Homo sapiens, UniProt P47871). The assay is described as follows: Functional cAMP activity in the presence of 1% HSA. As to conditions: read-out: cAMP Rel EC50, hGcgR.
The target of assay [5] is T1, hGLP-1R. Description: Functional cAMP activity in the presence of 1% HSA. As to conditions: read-out: cAMP Rel EC50, hGLP-1R.
Assay [6] addresses hGcgR (Homo sapiens, UniProt P47871). The assay is described as follows: Functional cAMP activation in the presence of 0.1% casein (no HSA). Particulars: read-out: Relative cAMP EC50, hGcgR.
Where [7] appears, read: in the presence of 0.1% casein (no HSA), geometric mean.
Where [8] appears, read: 0.1% casein, no HSA, geometric mean.
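For Relative cAMP EC50, hGIPR in this document: intracellular cAMP rise after 30 min at 37 °C read by HTRF against a standard curve, scaled between buffer alone (0%) and top control ligand concentration (100%), four-parameter fit.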
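For Relative cAMP EC50, hGLP-1R in this document: intracellular cAMP rise after 30 min at 37 °C read by HTRF, normalized between buffer only (0%) and maximal control ligand (100%), four-parameter variable-slope fit.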
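For Relative cAMP EC50, hGcgR in this document: intracellular cAMP rise after 30 min at 37 °C, read by HTRF against a cAMP standard curve, scaled from buffer only (0%) to maximal control ligand response (100%).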

human GcgR, sequence (P47871 26-477): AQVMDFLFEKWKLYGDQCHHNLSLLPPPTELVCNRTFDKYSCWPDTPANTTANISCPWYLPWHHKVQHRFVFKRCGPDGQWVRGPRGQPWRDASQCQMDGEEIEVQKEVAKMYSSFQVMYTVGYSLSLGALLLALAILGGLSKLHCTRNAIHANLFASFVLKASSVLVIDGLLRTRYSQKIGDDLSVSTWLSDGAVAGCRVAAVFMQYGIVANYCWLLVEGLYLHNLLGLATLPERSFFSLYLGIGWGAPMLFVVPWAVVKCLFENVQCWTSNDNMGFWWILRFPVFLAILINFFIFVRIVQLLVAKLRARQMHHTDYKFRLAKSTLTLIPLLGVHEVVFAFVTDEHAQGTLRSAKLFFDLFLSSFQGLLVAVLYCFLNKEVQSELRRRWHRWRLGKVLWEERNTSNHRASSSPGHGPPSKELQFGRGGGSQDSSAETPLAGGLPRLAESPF
hGcgR, sequence (P47871 26-477): as above

In general, EC50 refers to the midpoint of the concentration-response curve. On to “H-Y[Aib]QGT[αMePhe(2-F)]TSD[4Pal][αMeS]I[αMeL]LD[Orn]K([γGlu-γGlu-C18 diacid])AQ[Aib][Orn]FI[dE][αMeY]LAEGGPSSGEPPPSGTE-NH2 [Example 544]”, for which the EC50 was determined as 0.623 nM in assay [1]; 2.4 nM in assay [2]; 0.041 nM in assay [3]; 171 nM in assay [4]; 43 nM in assay [5]; 2.71 nM in assay [6].

Take “H-Y[Aib]QGT[αMePhe(2-F)]TSD[4Pal][αMeS]I[αMeL]LD[Orn]K([γGlu-γGlu-C18 diacid])AQ[αMe4Pal]EFI[dE][αMeY]LVEGGPSSGEPPPSGE-NH2 [Example 1161]”: the EC50 in assay [1] (setting [7]) is 0.39 nM; in assay [2], 0.733 nM; in assay [3] (setting [7]), 0.00973 nM; in assay [4], 217 nM; in assay [5], 35.5 nM; in assay [6] (setting [7]), 2.19 nM.

In the case of “H-Y[Aib]QGT[αMePhe(2-F)]TSD[4Pal][αMeS]I[αMeL]LD[Orn]K([AEEA-γGlu-C18 diacid])AQ[αMe4Pal]EFI[dE][αMeY]LIEGGPSSGAPPPEGGGE-NH2 [Example 759]”, the EC50 was 0.262 nM in assay [1]; 1.05 nM in assay [2]; 0.00676 nM in assay [3]; 223 nM in assay [4]; 34.8 nM in assay [5]; 1.29 nM in assay [6].

As to “H-Y[Aib]QGTFTSD[4Pal]SR[αMeL]LDKK([AEEA-γGlu-C18 diacid])AQ[Aib]AFIE[αMeY]LIEGGPSSGAPPPSGS-NH2 [Example 837]”, the EC50 stood at 0.551 nM in assay [1] (setting [7]); 20.7 nM in assay [2]; 0.209 nM in assay [3] (setting [7]); 2060 nM in assay [4]; 69.6 nM in assay [5]; 7.24 nM in assay [6] (setting [7]).

With “H-Y[Aib]QGTFTSD[4Pal]SQ[αMeL]LDKK([dE-γGlu-C18 diacid])AQ[αMe4Pal]AFIEYLIAGGPSSGAPPPSGE-NH2 [Example 1085]”, the EC50 came to 1.28 nM in assay [1] (setting [7]); 9.84 nM in assay [2]; 0.0827 nM in assay [3] (setting [7]); 1370 nM in assay [4]; 188 nM in assay [5]; 11.6 nM in assay [6] (setting [7]).

In the case of “Y[Aib]QGTFTSD[4Pal]SQ[αMeL]LDKK([dE-γGlu-C18 diacid])AQ[αMe4Pal]AFIEYLIE[Aib]GPSSGAPPPSGSE-NH2 [Example 924]”, the EC50 in assay [1] (setting [7]) is 3.12 nM; in assay [2] it was 15.7 nM; in assay [3] (setting [7]) it was 0.0798 nM; in assay [4] it was 910 nM; in assay [5] it was 402 nM; in assay [6] (setting [7]) it was 6.05 nM.

Take “Y[Aib]QGTFTSD[4Pal]S[Orn][αMeL]LD[Orn]K([AEEA-γGlu-C18 diacid])AQ[Aib]AFIE[αMeY]LLEGGPSSGAPPPSGS-NH2 [Example 933]”: the EC50 is 2.32 nM in assay [1] (setting [7]); 35.1 nM in assay [2]; 0.259 nM in assay [3] (setting [7]); 1530 nM in assay [4]; 557 nM in assay [5]; 5.51 nM in assay [6] (setting [7]).

With “H-Y[Aib]QGTFTSD[4Pal]SQ[αMeL]LD[Orn]K([γGlu-γGlu-C18 diacid])AQ[αMe4Pal]QFIEYLIAGGPSSGAPPPSGSEE-NH2 [Example 1005]”, the EC50 in assay [1] (setting [7]) came to 1.48 nM; in assay [2], 14.5 nM; in assay [3] (setting [7]), 0.152 nM; in assay [4] it was 1670 nM; in assay [5], 171 nM; in assay [6] (setting [7]) it was 9.46 nM.

As for “H-Y[Aib]QGT[αMePhe(2-F)]TSDYSILLDKK([AEEA-γGlu-C18 diacid])AQ[Aib]AFIE[4Pal]LEEGGPSSGAPPPSEG-NH2 [Example 411]”, the EC50 in assay [1] was found to be 0.709 nM; in assay [2], 23.8 nM; in assay [3] it was 0.058 nM; in assay [4], 1170 nM; in assay [5] it was 82.1 nM; in assay [6], 3.94 nM.

Consider “H-Y[Aib]QGTFTSD[4Pal]S[Orn][αMeL]LD[Orn]K([γGlu-γGlu-C18 diacid])AQ[αMe4Pal]AFIE[αMeY]LIEGGPSSGAPPPSGS-NH2 [Example 1013]”, for which the EC50 is 0.449 nM in assay [1] (setting [7]); 22.6 nM in assay [2]; 0.208 nM in assay [3] (setting [7]); 285 nM in assay [4]; 137 nM in assay [5]; 2 nM in assay [6] (setting [7]).

Turning to “H-Y[Aib]QGT[αMePhe(2-F)]TSD[4Pal][αMeS]I[αMeL]LD[Orn]K([γGlu-γGlu-C18 diacid])AQ[Aib]NFI[dE][αMeY]LQEGGPSSGEPPPEGT-NH2 [Example 525]”, the EC50 stood at 0.426 nM in assay [1]; 2.07 nM in assay [2]; 0.0351 nM in assay [3]; 460 nM in assay [4]; 20.2 nM in assay [5]; 10 nM in assay [6].

As to “H-Y[Aib]Q[dA]T[αMePhe(2-F)]TSD[4Pal][αMeS]I[αMeL]LD[Orn]K([γGlu-γGlu-C18 diacid])AQ[Aib]EFI[dE][αMeY]LIEGGPSSGAPPPSGSE-NH2 [Example 1224]”, the EC50 in assay [1] (setting [8]) amounted to 0.379 nM; in assay [2] it was 3.78 nM; in assay [3] (setting [8]), 0.048 nM; in assay [4], 208 nM; in assay [5] it was 28.4 nM; in assay [6] (setting [8]), 2.32 nM.

Regarding “H-Y[Aib]QGT[αMePhe(2-F)]TSD[4Pal][αMeS]I[αMeL]LD[Orn]K([γGlu-γGlu-C18 diacid])AQ[Aib][Orn]FI[dE][αMeY]LQEGGPSSGEPPPSGTEE-NH2 [Example 572]”, the EC50 was 0.366 nM in assay [1]; 3.13 nM in assay [2]; 0.0465 nM in assay [3]; 330 nM in assay [4]; 30.4 nM in assay [5]; 3.48 nM in assay [6].

As to “H-Y[Aib]QGTFTSDYSK[αMeL]LDKK([AEEA-γGlu-C20 diacid])AQQAFIEYLIAGGPSSGAPPPSSE-NH2 [Example 322]”, the EC50 in assay [1] (setting [7]) worked out at 0.394 nM; in assay [2], 89.3 nM; in assay [3] (setting [7]), 0.264 nM; in assay [4] it was 2620 nM; in assay [5], 135 nM; in assay [6] (setting [7]), 5.41 nM.

Take `CC[C@H](C)[C@H](NC(=O)[C@H](Cc1ccccc1)NC(=O)[C@H](CCCN)NC(=O)C(C)(C)NC(=O)[C@H](CCC(N)=O)NC(=O)[C@H](C)NC(=O)[C@H](CCCCNC(=O)CC[C@H](NC(=O)CC[C@H](NC(=O)CCCCCCCCCCCCCCCCC(=O)O)C(=O)O)C(=O)O)NC(=O)[C@H](CCCN)NC(=O)[C@H](CC(=O)O)NC(=O)[C@H](CC(C)C)NC(=O)[C@](C)(CC(C)C)NC(=O)[C@@H](NC(=O)[C@](C)(CO)NC(=O)[C@H](Cc1ccncc1)NC(=O)[C@H](CC(=O)O)NC(=O)[C@H](CO)NC(=O)[C@@H](NC(=O)[C@](C)(Cc1ccccc1F)NC(=O)[C@@H](NC(=O)CNC(=O)[C@H](CCC(N)=O)NC(=O)C(C)(C)NC(=O)[C@@H](N)Cc1ccc(O)cc1)[C@@H](C)O)[C@@H](C)O)[C@@H](C)CC)C(=O)N[C@H](CCC(=O)O)C(=O)N[C@@](C)(Cc1ccc(O)cc1)C(=O)N[C@@H](CC(C)C)C(=O)N[C@@H](CC(C)C)C(=O)N[C@@H](CCC(=O)O)C(=O)NCC(=O)NCC(=O)N1CCC[C@H]1C(=O)N[C@@H](CO)C(=O)N[C@@H](CO)C(=O)NCC(=O)N[C@@H](CCC(=O)O)C(=O)N1CCC[C@H]1C(=O)N1CCC[C@H]1C(=O)N1CCC[C@H]1C(=O)N[C@@H](CO)C(N)=O` [Example 374] (H-Y[Aib]QGT[αMePhe(2-F)]TSD[4Pal][αMeS]I[αMeL]LD[Orn]K([γGlu-γGlu-C18 diacid])AQ[Aib][Orn]FI[dE][αMeY]LLEGGPSSGEPPPS-NH2): the EC50 in assay [1] (setting [7]) stood at 0.336 nM; in assay [2], 2.28 nM; in assay [3] (setting [7]), 0.0186 nM; in assay [4], 65.4 nM; in assay [5], 24.5 nM; in assay [6] (setting [7]), 0.908 nM.
